Test results as given in PubChem BioAssay AID248 (DTP/NCI, 2004).
Several values for one entry are separate records, joined by “and”; a condition that tells them apart may be missing. Identical values can stand only once. Toxic doses and inconclusive results are not listed. Rule as the data show it: active = T/C of 150% or more; inactive = T/C below 125%.

System: L1210 leukemia ip in BDF1 mice, survival T/C
Test: NCI In Vivo Anticancer Drug Screen. Data for tumor model L1210 Leukemia (intraperitoneal) in B6D2F1 (BDF1) mice
Settings: endpoint: mean survival time, higher = longer survival
Method in brief: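 In this screen, tumor-bearing mice given compound are compared to those given vehicle, and their survival values are reported as a treated-to-control quotient.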

[1] = dose: 100.0 mg/kg/injection, schedule: Q04DX002 (ip), vehicle: Klucel (hydroxypropylcellulose) (HPC)
[2] = dose: 200.0 mg/kg/injection, schedule: Q04DX002 (ip), vehicle: Klucel (hydroxypropylcellulose) (HPC)
[3] = dose: 400.0 mg/kg/injection, schedule: Q04DX002 (ip), vehicle: Klucel (hydroxypropylcellulose) (HPC)
[4] = dose: 100.0 mg/kg/injection, schedule: Q04DX002 (ip), vehicle: saline with Tween-80
[5] = dose: 50.0 mg/kg/injection, schedule: Q04DX003 (ip), vehicle: Klucel (hydroxypropylcellulose) (HPC)
[6] = dose: 100.0 mg/kg/injection, schedule: Q04DX003 (ip), vehicle: Klucel (hydroxypropylcellulose) (HPC)
[7] = dose: 100.0 mg/kg/injection, schedule: Q01DX009 (ip), vehicle: saline with Tween-80
[8] = dose: 200.0 mg/kg/injection, schedule: Q01DX009 (ip), vehicle: saline with Tween-80
[9] = dose: 400.0 mg/kg/injection, schedule: Q01DX009 (ip), vehicle: saline with Tween-80
[10] = dose: 100.0 mg/kg/injection, schedule: Q01DX001 (ip), vehicle: saline
[11] = dose: 200.0 mg/kg/injection, schedule: Q01DX001 (ip), vehicle: saline
[12] = dose: 400.0 mg/kg/injection, schedule: Q01DX001 (ip), vehicle: saline
[13] = dose: 25.0 mg/kg/injection, schedule: Q01DX009 (ip), vehicle: Klucel (hydroxypropylcellulose) (HPC)
[14] = dose: 50.0 mg/kg/injection, schedule: Q01DX009 (ip), vehicle: Klucel (hydroxypropylcellulose) (HPC)
[15] = dose: 100.0 mg/kg/injection, schedule: Q01DX009 (ip), vehicle: Klucel (hydroxypropylcellulose) (HPC)
[16] = dose: 200.0 mg/kg/injection, schedule: Q01DX009 (ip), vehicle: Klucel (hydroxypropylcellulose) (HPC)
[17] = dose: 400.0 mg/kg/injection, schedule: Q01DX009 (ip), vehicle: Klucel (hydroxypropylcellulose) (HPC)
[18] = dose: 200.0 mg/kg/injection, schedule: Q04DX003 (ip), vehicle: Klucel (hydroxypropylcellulose) (HPC)

Measured: T/C

CC1(C)CC(=O)C(N=Nc2ccccc2)=C(O)C1
inactive: [1] 105 % of control | [2] 108 % of control | [3] 94 % of control

CCCCCCCCCCCCCCCC(=O)N(CCC#N)CCCCCCCCCN(CCC#N)C(=O)CCCCCCCCCCCCCCC
inactive: dose: 100.0 mg/kg/injection, schedule: Q01DX009 (ip), vehicle: saline 86 % of control | dose: 100.0 mg/kg/injection, schedule: Q04DX003 (ip), vehicle: saline 94 % of control | dose: 200.0 mg/kg/injection, schedule: Q04DX003 (ip), vehicle: saline 87 % of control | dose: 400.0 mg/kg/injection, schedule: Q01DX009 (ip), vehicle: saline 91 % of control | dose: 400.0 mg/kg/injection, schedule: Q04DX003 (ip), vehicle: saline 92 % of control

O=C(NOCCCl)Nc1ccccc1
inactive: dose: 125.0 mg/kg/injection, schedule: Q01DX Z (ip), vehicle: carboxymethylcellulose (CMC) 96 % of control | dose: 200.0 mg/kg/injection, schedule: Q01DX Z (ip), vehicle: carboxymethylcellulose (CMC) 96 % of control | dose: 250.0 mg/kg/injection, schedule: Q01DX Z (ip), vehicle: carboxymethylcellulose (CMC) 107 % of control | dose: 500.0 mg/kg/injection, schedule: Q01DX Z (ip), vehicle: carboxymethylcellulose (CMC) 95 % of control

O=C(Cl)C1CCC1C(=O)Cl (configuration not stated)
inactive: dose: 75.0 mg/kg/injection, schedule: Q01DX001 (ip), vehicle: carboxymethylcellulose (CMC) 102 % of control | dose: 150.0 mg/kg/injection, schedule: Q01DX001 (ip), vehicle: carboxymethylcellulose (CMC) 91 % of control

N#CCC(=O)N/N=C/c1ccccc1
inactive: [4] 97 % of control | dose: 200.0 mg/kg/injection, schedule: Q04DX002 (ip), vehicle: saline with Tween-80 101 % of control | dose: 400.0 mg/kg/injection, schedule: Q04DX002 (ip), vehicle: saline with Tween-80 101 % of control

O=C(NC(CSC(c1ccc(Cl)cc1)c1ccc(Cl)cc1)C(=O)O)OCc1ccccc1 (configuration not stated)
inactive: dose: 25.0 mg/kg/injection, schedule: Q04DX003 (ip), vehicle: Klucel (hydroxypropylcellulose) (HPC) 102 % of control | [5] 91 % of control | [6] 97 % of control

O=C(Nc1ccccc1)c1ccccc1C(O)(c1ccccc1)c1ccccn1 (configuration not stated)
inactive: [7] 95 % of control | [8] 97 % of control | [9] 92 % of control

Clc1cccc(Cl)c1/C=N/Nc1nnc(N/N=C/c2c(Cl)cccc2Cl)c2ccccc12
inactive: dose: 50.0 mg/kg/injection, schedule: Q01DX001 (ip), vehicle: saline 103 % of control | [10] 100 % of control | [11] 100 % of control | [12] 103 % of control

O=C(O)c1ccc(=O)oc1
inactive: [13] 100 % of control | [14] 87 % of control | [15] 90 % of control

CCCCC(CC)C(O)CC(O)CC (configuration not stated)
inactive: [7] 92 % of control | [8] 92 % of control | [9] 95 % of control

CC(C)C/C=N\N=C(N)N
inactive: dose: 15.0 mg/kg/injection, schedule: Q01DX Z (ip), vehicle: saline 103 % of control | dose: 30.0 mg/kg/injection, schedule: Q01DX Z (ip), vehicle: saline 113 % of control | dose: 60.0 mg/kg/injection, schedule: Q01DX Z (ip), vehicle: saline 104 % of control and 90 % of control | dose: 60.0 mg/kg/injection, schedule: Q01DX Z (sc), vehicle: saline 117 % of control | dose: 120.0 mg/kg/injection, schedule: Q01DX Z (ip), vehicle: saline 103 % of control | dose: 120.0 mg/kg/injection, schedule: Q01DX Z (sc), vehicle: saline 110 % of control

c1ccc(NC2=NCCO2)cc1
inactive: dose: 25.0 mg/kg/injection, schedule: Q04DX002 (ip), vehicle: saline with Tween-80 107 % of control | dose: 50.0 mg/kg/injection, schedule: Q04DX002 (ip), vehicle: saline with Tween-80 90 % of control | [4] 96 % of control

CCOP(=S)(OCC)Oc1cccc(NC(=O)CC)c1
inactive: [7] 102 % of control | [8] 104 % of control | [9] 93 % of control

CCCCCCN(CCCCCC)CCCCCC
inactive: dose: 8.0 mg/kg/injection, schedule: Q01DX015 (ip), vehicle: carboxymethylcellulose (CMC) 97 % of control | dose: 16.0 mg/kg/injection, schedule: Q01DX015 (ip), vehicle: carboxymethylcellulose (CMC) 100 % of control | dose: 32.0 mg/kg/injection, schedule: Q01DX015 (ip), vehicle: carboxymethylcellulose (CMC) 102 % of control | dose: 64.0 mg/kg/injection, schedule: Q01DX015 (ip), vehicle: carboxymethylcellulose (CMC) 96 % of control | [10] 97 % of control | dose: 128.0 mg/kg/injection, schedule: Q01DX015 (ip), vehicle: carboxymethylcellulose (CMC) 97 % of control | [11] 106 % of control | [12] 100 % of control

c1ccc2c3c([nH]c2c1)C1CC2CC(C1)CC3C2
inactive: dose: 100.0 mg/kg/injection, schedule: Q04DX003 (ip), vehicle: alcohol 105 % of control | dose: 200.0 mg/kg/injection, schedule: Q04DX003 (ip), vehicle: alcohol 96 % of control | dose: 400.0 mg/kg/injection, schedule: Q04DX003 (ip), vehicle: alcohol 96 % of control

CC(=O)N1C(CO)C(O)C(O)C1n1cnc2c(N)ncnc21 (configuration not stated)
inactive: [10] 106 % of control | [11] 96 % of control | [12] 96 % of control

COc1cc(/C=C/C(N)=O)cc(OC)c1OC
inactive: [13] 104 % of control | [14] 114 % of control | [15] 101 % of control | [16] 104 % of control | [17] 102 % of control

CCCC1(C(=O)OCC)CCCC1=O (configuration not stated)
inactive: dose: 100.0 mg/kg/injection, schedule: Q01DX001 (ip), vehicle: carboxymethylcellulose (CMC) 95 % of control | dose: 200.0 mg/kg/injection, schedule: Q01DX001 (ip), vehicle: carboxymethylcellulose (CMC) 90 % of control | dose: 400.0 mg/kg/injection, schedule: Q01DX001 (ip), vehicle: carboxymethylcellulose (CMC) 92 % of control

CCOC(=O)CCC(=O)N(C)CCc1ccc(OC)c(OC)c1
inactive: dose: 25.0 mg/kg/injection, schedule: Q04DX002 (ip), vehicle: Klucel (hydroxypropylcellulose) (HPC) 117 % of control | dose: 50.0 mg/kg/injection, schedule: Q04DX002 (ip), vehicle: Klucel (hydroxypropylcellulose) (HPC) 101 % of control | [1] 101 % of control

Cc1cccc(C)c1N1C(=O)CCC1=O
inactive: [14] 98 % of control | [15] 96 % of control | [6] 94 % of control | [16] 100 % of control | [18] 97 % of control | [17] 100 % of control | dose: 400.0 mg/kg/injection, schedule: Q04DX003 (ip), vehicle: Klucel (hydroxypropylcellulose) (HPC) 100 % of control

Cn1[nH]c(=O)c2ncccc2c1=O
inactive: [1] 97 % of control | dose: 100.0 mg/kg/injection, schedule: Q04DX002 (ip), vehicle: saline 94 % of control | [2] 97 % of control | dose: 200.0 mg/kg/injection, schedule: Q04DX002 (ip), vehicle: saline 94 % of control | dose: 400.0 mg/kg/injection, schedule: Q04DX002 (ip), vehicle: saline 97 % of control

CC(C)(C)c1ccc(OCCO)cc1
inactive: dose: 25.0 mg/kg/injection, schedule: Q01DX009 (ip), vehicle: other 102 % of control | dose: 50.0 mg/kg/injection, schedule: Q01DX009 (ip), vehicle: other 96 % of control | dose: 100.0 mg/kg/injection, schedule: Q01DX009 (ip), vehicle: other 95 % of control

O=[N+]([O-])c1cc(CCl)ccc1CCl
inactive: [5] 86 % of control | [6] 92 % of control | [18] 98 % of control

Nc1ccc(S(=O)(=O)Nc2ncccn2)cc1
inactive: [10] 96 % of control | [1] 103 % of control | [11] 97 % of control | [2] 92 % of control | [12] 103 % of control | [3] 103 % of control

C1CCC(N=C(NC2CCCCC2)OC2CCCCC2)CC1
inactive: dose: 11.1 mg/kg/injection, schedule: Q01DX Z (ip), vehicle: methylcellulose (MC) 97 % of control | dose: 16.6 mg/kg/injection, schedule: Q01DX Z (ip), vehicle: methylcellulose (MC) 89 % of control | dose: 25.0 mg/kg/injection, schedule: Q01DX Z (ip), vehicle: methylcellulose (MC) 101 % of control
